Results published in US9669035B2, “Combinations comprising PDE 2 inhibitors such as 1-aryl-4-methyl-[1,2,4]triazolo-[4,3-A]]quinoxaline compounds and PDE 10 inhibitors for use in the treatment of neurological of metabolic disorders” (Janssen Pharmaceutica NV, priority 2012, dated 2017).
Counter-ions that a name gives are not always drawn. Like-named read-outs stand apart in the source and are kept apart here.

Legend:
[1] = tested on: Apomorphine-induced agitation in rats; assay: Inhibition of apomorphine-induced agitation in rats in combination with MP-10; format: in vivo, rat; conditions: SC, MP-10 (0.63 mg/kg) + apomorphine (1.0 mg/kg) i.v.
Method: Inhibition of Apomorphine-induced Agitation in Rats in combination with MP-10 but the animals were simultaneously challenged with MP-10 (0.63 mg/kg) in addition to apomorphine (1.0 mg/kg) via one injection (2 ml/kg, i.v.), at a fixed time interval (standard 1 h) after s.c. or p.o. dosing of test compound or solvent. Twelve times, every 5 min, the intensity of agitation was scored 0 to 3.

[2] = tested on: d-Amphetamine-induced hyperlocomotion in rats; assay: d-Amphetamine-induced hyperlocomotion in rats: potentiation of the effect of MP-10; format: in vivo, rat; conditions: SC, d-amphetamine (1.25 mg/kg, s.c.) + MP-10 (2.5 mg/kg, s.c.)
[3] = tested on: d-Amphetamine-induced hyperlocomotion in rats; assay: d-Amphetamine-induced hyperlocomotion in rats: MP-10 or B-1a alone (FIGS. 6-8); format: in vivo, rat; conditions: 40 mg/kg s.c., 1 h
[4] = tested on: cGMP levels in the rat brain; conditions: increase versus control
[5] = tested on: Apomorphine-induced agitation in rats; assay: Inhibition of apomorphine-induced agitation in rats in combination with Compound A and Compound B (FIGS. 4, 5); format: in vivo, rat; conditions: -1 h
[6] = tested on: d-Amphetamine-induced hyperlocomotion in rats; assay: Inhibition of d-amphetamine-induced hyperlocomotion in rats in combination with Compound A and Compound B (FIGS. 9, 10); format: in vivo, rat; conditions: B-1a 0.63-5.0 mg/kg s.c., -1 h
[7] = tested on: Apomorphine-induced agitation in rats; assay: Inhibition of apomorphine-induced agitation in rats (APO); conditions: for Dose at max effect / Max effect (lowest median cumulative agitation score) / LAD (lowest active dose): SC; for Max effect (lowest median cumulative agitation score): at the dose at max effect; for LAD (lowest active dose): lowest dose at which >=67% tested animals respond
[8] = molecular target: Human recombinant PDE2A (hPDE2A) (Homo sapiens (Human), UniProt O00408); assay: In vitro assay PDE2A (SPA, 3H-cGMP); format: biochemical; conditions: -log IC50 expressed in mol/L
Chain of Human recombinant PDE2A (hPDE2A) (O00408 whole entry): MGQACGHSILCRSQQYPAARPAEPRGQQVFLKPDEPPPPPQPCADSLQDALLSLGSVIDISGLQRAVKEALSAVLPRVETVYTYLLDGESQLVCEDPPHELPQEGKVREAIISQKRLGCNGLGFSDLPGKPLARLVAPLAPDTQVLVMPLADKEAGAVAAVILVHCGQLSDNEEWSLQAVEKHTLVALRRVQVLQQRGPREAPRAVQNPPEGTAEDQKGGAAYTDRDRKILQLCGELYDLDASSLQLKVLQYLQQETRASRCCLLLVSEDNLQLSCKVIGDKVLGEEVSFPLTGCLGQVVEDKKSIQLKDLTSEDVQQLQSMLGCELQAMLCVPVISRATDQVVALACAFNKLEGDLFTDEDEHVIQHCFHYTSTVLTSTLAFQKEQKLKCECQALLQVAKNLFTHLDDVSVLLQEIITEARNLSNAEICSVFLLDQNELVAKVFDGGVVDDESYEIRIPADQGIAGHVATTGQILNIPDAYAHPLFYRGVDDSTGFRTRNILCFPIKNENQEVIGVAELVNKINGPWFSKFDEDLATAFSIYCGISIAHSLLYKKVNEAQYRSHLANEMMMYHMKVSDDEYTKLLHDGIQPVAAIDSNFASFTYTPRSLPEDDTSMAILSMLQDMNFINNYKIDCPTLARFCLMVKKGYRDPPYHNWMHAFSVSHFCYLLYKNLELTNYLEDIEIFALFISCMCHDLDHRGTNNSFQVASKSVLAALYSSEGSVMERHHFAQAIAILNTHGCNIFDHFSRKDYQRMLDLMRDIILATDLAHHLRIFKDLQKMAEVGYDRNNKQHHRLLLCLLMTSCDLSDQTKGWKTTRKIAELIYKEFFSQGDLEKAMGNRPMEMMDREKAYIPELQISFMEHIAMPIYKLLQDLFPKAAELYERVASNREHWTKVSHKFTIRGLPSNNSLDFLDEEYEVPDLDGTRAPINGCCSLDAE

[9] = molecular target: Rat recombinant PDE10A (rPDE10A2) (Rattus norvegicus (Rat), UniProt Q9QYJ6); assay: In vitro assay PDE10A (SPA, 3H-cAMP); format: biochemical; conditions: -log IC50 expressed in mol/L
Chain of Rat recombinant PDE10A (rPDE10A2) (Q9QYJ6 whole entry): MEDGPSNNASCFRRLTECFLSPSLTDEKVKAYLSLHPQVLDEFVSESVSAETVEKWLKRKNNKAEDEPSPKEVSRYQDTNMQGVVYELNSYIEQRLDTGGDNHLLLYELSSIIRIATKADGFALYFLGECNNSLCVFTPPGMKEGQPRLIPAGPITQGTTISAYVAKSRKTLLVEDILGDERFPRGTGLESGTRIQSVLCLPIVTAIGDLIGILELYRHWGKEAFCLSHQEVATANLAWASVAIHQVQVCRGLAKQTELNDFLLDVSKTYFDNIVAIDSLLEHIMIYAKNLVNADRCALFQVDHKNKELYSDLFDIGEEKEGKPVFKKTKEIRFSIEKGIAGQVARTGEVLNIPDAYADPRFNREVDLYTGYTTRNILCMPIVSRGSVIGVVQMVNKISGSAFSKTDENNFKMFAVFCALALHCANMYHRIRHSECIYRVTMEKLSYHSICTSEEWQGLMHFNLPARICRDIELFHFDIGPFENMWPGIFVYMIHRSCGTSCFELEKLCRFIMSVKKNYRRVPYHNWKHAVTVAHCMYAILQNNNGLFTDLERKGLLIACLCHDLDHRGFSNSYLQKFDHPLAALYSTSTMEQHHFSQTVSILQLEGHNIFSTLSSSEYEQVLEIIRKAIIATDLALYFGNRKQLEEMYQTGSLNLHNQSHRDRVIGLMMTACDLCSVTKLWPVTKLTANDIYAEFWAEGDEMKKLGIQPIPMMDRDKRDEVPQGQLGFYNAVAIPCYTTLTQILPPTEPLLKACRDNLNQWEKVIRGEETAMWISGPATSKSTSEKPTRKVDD

PDE2 = PDE2 (Rattus norvegicus (Rat), UniProt Q01062); conditions: rat brain sections
Chain of PDE2 (Q01062 whole entry): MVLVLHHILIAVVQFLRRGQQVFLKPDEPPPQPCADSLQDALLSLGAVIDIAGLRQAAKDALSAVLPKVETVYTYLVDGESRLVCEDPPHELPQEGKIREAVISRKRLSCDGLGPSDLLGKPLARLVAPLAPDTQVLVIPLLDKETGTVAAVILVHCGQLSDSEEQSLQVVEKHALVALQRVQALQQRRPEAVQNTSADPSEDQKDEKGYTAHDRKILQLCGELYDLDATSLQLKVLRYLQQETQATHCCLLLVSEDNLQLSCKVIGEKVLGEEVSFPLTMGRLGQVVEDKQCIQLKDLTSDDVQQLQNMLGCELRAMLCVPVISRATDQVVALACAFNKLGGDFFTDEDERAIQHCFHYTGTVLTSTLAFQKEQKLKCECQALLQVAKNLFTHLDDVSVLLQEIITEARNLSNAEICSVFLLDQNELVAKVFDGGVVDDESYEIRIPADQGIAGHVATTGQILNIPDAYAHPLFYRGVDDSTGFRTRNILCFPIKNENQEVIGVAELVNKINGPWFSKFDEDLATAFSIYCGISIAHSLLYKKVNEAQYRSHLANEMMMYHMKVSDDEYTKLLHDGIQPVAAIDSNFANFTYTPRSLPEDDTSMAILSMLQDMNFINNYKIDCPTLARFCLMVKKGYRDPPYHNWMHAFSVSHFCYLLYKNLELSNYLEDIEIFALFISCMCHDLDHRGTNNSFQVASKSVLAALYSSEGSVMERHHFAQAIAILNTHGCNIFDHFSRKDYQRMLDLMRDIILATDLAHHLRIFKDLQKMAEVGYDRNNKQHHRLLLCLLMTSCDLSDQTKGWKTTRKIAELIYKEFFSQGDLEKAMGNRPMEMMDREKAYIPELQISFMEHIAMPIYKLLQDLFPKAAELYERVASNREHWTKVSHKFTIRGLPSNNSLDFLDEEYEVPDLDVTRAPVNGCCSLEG

## CCCCOc1cncc(-c2nnc3c(C)nc4ccc(CN5CCOCC5)cc4n23)c1 [Compound B-1a, 1-(5-Butoxypyridin-3-yl)-4-methyl-8-(morpholin-4-ylmethyl) [1,2,4]triazolo[4,3-a]quinoxaline hydrochloride]
[1]; Time 60, dose 0.63
  Inh. of agitation < 10 Effect (cumulative agitation score): 18
[1]; Time 60, dose 1.25
  Inh. of agitation < 10 Effect (cumulative agitation score): 10
[1]; Time 60, dose 2.5
  Inh. of agitation < 10 Effect (cumulative agitation score): 11
[1]; Time 60, dose 5
  Inh. of agitation < 10 Effect (cumulative agitation score): 6
[1]; Time 60, dose 10
  Inh. of agitation < 10 Effect (cumulative agitation score): 7
[1]; Time 60, dose 40
  Inh. of agitation < 10 Effect (cumulative agitation score): 1
[2]; Time -60, dose 0.31
  Distance Total <2500 cm Effect: 3066 cm
[2]; Time -60, dose 0.63
  Distance Total <2500 cm Effect: 2525 cm
[2]; Time -60, dose 1.25
  Distance Total <2500 cm Effect: 1664 cm
[2]; Time -60, dose 2.5
  Distance Total <2500 cm Effect: 1659 cm
[2]; Time -60, dose 5
  Distance Total <2500 cm Effect: 1281 cm
[2]; Time -60, dose 10
  Distance Total <2500 cm Effect: 727.6 cm
[3]
  effect against d-amphetamine-induced hyperlocomotion, alone: ineffective per se
[4]; 2.5 mpk
  incr vs contr (pmol cGMP/ml) (measured): 5.4 pmol cGMP/ml
[4]; 10 mpk
  incr vs contr (pmol cGMP/ml) (measured): 9.7 pmol cGMP/ml
[5]; B-1a 5.0 mg/kg s.c., PDE10-i 2.5 mg/kg s.c.
  effect on apomorphine-induced agitation combined with Compound A or Compound B: significantly potentiated the effect of both PDE10-is
[5]; B-1a 0.63-5.0 mg/kg s.c.
  effect on apomorphine-induced agitation combined with the solvent of the PDE10-is: did not affect apomorphine-induced agitation
[6]
  effect on d-amphetamine-induced hyperlocomotion combined with the solvent of the PDE10-is: ineffective against the d-amphetamine-induced hyperlocomotion
[6]; PDE10-i 2.5 mg/kg s.c.
  effect on d-amphetamine-induced hyperlocomotion combined with Compound A or Compound B: potentiated the effect of both PDE10-is
[7]
  Dose at max effect: 40
  Max effect (lowest median cumulative agitation score): 23
  LAD (lowest active dose): >40
[7]; without MP-10, at the tested doses
  effect against apomorphine-induced agitation, administered alone: ineffective against apomorphine

## Cc1nc2ccc(CN3CCOCC3)cc2n2c(-c3ccccc3Cl)nnc12 [Compound B-3, 1-(2-Chlorophenyl)-4-methyl-8-(morpholin-4-ylmethyl)[1,2,4]triazolo[4,3-a]-quinoxaline]
[8]
  pIC50 PDE2: 8.64
[9]
  PIC50 PDE10: 7.47
[7]
  Dose at max effect: 5
  Max effect (lowest median cumulative agitation score): 14
  LAD (lowest active dose): 5

## O=P1(O)OCC2O[C@@H](n3cnc4ccccc43)[C@H](O)C2O1 (some centres unmarked) [cBIMP]
PDE2
  effect on specific binding of [3H]B-1a: increase the specific binding
